According to ChEMBL document CHEMBL2203257 (Bioorg Med Chem Lett, 2012):

Assays:
[1] = target: Calcium/calmodulin-dependent protein kinase type II subunit gamma (Homo sapiens, UniProt Q13555); assay: Inhibition of CAMK2G
[2] = target: Cyclin-dependent kinase 1 (Homo sapiens, UniProt P06493); assay: Inhibition of CDC2
[3] = target: T1, Casein kinase II subunit alpha (Homo sapiens, UniProt P68400); assay: Inhibition of CK2a1
[4] = target: T2, Casein kinase II subunit alpha' (Homo sapiens, UniProt P19784); assay: Inhibition of CK2a2
T2 sequence (P19784 whole entry, canonical isoform): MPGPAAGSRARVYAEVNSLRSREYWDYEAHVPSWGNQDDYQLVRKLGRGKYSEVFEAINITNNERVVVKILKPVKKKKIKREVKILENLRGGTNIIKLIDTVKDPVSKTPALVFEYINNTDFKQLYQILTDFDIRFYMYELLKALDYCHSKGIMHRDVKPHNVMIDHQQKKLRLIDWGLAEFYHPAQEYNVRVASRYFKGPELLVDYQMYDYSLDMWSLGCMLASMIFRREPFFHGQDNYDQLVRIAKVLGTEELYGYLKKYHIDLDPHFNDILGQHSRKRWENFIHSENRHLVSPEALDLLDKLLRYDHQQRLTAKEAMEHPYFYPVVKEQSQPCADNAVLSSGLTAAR

[5] = target: Casein kinase I isoform delta (Homo sapiens, UniProt P48730); assay: Inhibition of CSNK1D
[6] = target: T1, Casein kinase II subunit alpha; assay: Inhibition of CSNK2A1
[7] = target: T2, Casein kinase II subunit alpha'; assay: Inhibition of CSNK2A2
[8] = target: eIF-2-alpha kinase GCN2 (Homo sapiens, UniProt Q9P2K8); assay: Inhibition of EIF2AK4
[9] = target: Ephrin type-B receptor 6 (Homo sapiens, UniProt O15197); assay: Inhibition of EPHB6
Ephrin type-B receptor 6, sequence (O15197 whole entry): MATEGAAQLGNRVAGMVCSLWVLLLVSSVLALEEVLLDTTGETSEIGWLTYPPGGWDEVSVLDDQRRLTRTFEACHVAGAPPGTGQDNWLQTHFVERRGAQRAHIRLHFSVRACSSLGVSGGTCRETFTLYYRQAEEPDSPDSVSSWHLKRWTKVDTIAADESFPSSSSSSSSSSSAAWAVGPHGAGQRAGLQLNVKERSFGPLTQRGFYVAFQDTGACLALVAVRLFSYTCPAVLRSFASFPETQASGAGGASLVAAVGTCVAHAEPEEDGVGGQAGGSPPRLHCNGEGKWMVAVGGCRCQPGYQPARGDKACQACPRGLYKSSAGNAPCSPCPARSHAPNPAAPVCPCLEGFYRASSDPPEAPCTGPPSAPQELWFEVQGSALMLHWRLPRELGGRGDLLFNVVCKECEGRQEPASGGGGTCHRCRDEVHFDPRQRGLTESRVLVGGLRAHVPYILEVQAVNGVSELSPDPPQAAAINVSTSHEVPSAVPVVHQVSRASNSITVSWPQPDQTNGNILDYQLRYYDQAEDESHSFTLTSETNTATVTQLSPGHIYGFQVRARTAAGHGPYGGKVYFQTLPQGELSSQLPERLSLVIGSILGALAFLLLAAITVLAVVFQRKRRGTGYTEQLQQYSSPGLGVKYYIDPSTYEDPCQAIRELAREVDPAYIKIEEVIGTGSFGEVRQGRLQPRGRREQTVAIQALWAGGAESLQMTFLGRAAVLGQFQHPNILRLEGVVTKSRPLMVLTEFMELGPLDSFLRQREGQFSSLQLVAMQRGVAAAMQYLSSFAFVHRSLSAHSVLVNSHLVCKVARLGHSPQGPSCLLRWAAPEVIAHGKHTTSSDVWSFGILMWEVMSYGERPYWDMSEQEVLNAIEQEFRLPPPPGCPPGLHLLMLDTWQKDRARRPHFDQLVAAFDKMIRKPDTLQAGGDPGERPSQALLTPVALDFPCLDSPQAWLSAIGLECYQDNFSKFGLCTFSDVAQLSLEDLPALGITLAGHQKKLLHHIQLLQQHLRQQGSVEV

[10] = target: Tyrosine-protein kinase Fyn (Homo sapiens, UniProt P06241); assay: Inhibition of FYN
[11] = target: Cyclin-G-associated kinase (Homo sapiens, UniProt O14976); assay: Inhibition of GAK
[12] = target: Glycogen synthase kinase-3 alpha (Homo sapiens, UniProt P49840); assay: Inhibition of GSK3A
[13] = target: Inhibitor of nuclear factor kappa-B kinase subunit epsilon (Homo sapiens, UniProt Q14164); assay: Inhibition of IKBKE
[14] = target: Interleukin-1 receptor-associated kinase 1 (Homo sapiens, UniProt P51617); assay: Inhibition of IRAK1
[15] = target: Tyrosine-protein kinase Lck (Homo sapiens, UniProt P06239); assay: Inhibition of LCK
[16] = target: Mitogen-activated protein kinase kinase kinase 5 (Homo sapiens, UniProt Q99683); assay: Inhibition of MAP3K5
[17] = target: Mitogen-activated protein kinase kinase kinase kinase 1 (Homo sapiens, UniProt Q92918); assay: Inhibition of MAP4K1
[18] = target: Mitogen-activated protein kinase 8 (Homo sapiens, UniProt P45983); assay: Inhibition of MAPK8
Mitogen-activated protein kinase 8, sequence (P45983 whole entry): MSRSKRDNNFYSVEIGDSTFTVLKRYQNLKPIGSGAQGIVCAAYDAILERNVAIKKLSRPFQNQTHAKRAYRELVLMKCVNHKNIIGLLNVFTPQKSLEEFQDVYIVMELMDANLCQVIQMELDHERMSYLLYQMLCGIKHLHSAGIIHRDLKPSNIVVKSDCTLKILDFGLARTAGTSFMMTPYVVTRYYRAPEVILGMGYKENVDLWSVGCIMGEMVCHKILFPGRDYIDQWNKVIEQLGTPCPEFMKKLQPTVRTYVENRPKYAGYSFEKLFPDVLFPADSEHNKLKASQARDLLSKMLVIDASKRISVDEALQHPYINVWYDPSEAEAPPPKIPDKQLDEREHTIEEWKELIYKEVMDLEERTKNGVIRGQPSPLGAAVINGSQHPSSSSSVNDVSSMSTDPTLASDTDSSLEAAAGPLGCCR

[19] = target: Serine/threonine-protein kinase mTOR (Homo sapiens, UniProt P42345); assay: Inhibition of mTOR
[20] = target: Phosphatidylinositol 4-kinase alpha (Homo sapiens, UniProt P42356); assay: Inhibition of PIK4Ca
Phosphatidylinositol 4-kinase alpha, sequence (P42356 whole entry): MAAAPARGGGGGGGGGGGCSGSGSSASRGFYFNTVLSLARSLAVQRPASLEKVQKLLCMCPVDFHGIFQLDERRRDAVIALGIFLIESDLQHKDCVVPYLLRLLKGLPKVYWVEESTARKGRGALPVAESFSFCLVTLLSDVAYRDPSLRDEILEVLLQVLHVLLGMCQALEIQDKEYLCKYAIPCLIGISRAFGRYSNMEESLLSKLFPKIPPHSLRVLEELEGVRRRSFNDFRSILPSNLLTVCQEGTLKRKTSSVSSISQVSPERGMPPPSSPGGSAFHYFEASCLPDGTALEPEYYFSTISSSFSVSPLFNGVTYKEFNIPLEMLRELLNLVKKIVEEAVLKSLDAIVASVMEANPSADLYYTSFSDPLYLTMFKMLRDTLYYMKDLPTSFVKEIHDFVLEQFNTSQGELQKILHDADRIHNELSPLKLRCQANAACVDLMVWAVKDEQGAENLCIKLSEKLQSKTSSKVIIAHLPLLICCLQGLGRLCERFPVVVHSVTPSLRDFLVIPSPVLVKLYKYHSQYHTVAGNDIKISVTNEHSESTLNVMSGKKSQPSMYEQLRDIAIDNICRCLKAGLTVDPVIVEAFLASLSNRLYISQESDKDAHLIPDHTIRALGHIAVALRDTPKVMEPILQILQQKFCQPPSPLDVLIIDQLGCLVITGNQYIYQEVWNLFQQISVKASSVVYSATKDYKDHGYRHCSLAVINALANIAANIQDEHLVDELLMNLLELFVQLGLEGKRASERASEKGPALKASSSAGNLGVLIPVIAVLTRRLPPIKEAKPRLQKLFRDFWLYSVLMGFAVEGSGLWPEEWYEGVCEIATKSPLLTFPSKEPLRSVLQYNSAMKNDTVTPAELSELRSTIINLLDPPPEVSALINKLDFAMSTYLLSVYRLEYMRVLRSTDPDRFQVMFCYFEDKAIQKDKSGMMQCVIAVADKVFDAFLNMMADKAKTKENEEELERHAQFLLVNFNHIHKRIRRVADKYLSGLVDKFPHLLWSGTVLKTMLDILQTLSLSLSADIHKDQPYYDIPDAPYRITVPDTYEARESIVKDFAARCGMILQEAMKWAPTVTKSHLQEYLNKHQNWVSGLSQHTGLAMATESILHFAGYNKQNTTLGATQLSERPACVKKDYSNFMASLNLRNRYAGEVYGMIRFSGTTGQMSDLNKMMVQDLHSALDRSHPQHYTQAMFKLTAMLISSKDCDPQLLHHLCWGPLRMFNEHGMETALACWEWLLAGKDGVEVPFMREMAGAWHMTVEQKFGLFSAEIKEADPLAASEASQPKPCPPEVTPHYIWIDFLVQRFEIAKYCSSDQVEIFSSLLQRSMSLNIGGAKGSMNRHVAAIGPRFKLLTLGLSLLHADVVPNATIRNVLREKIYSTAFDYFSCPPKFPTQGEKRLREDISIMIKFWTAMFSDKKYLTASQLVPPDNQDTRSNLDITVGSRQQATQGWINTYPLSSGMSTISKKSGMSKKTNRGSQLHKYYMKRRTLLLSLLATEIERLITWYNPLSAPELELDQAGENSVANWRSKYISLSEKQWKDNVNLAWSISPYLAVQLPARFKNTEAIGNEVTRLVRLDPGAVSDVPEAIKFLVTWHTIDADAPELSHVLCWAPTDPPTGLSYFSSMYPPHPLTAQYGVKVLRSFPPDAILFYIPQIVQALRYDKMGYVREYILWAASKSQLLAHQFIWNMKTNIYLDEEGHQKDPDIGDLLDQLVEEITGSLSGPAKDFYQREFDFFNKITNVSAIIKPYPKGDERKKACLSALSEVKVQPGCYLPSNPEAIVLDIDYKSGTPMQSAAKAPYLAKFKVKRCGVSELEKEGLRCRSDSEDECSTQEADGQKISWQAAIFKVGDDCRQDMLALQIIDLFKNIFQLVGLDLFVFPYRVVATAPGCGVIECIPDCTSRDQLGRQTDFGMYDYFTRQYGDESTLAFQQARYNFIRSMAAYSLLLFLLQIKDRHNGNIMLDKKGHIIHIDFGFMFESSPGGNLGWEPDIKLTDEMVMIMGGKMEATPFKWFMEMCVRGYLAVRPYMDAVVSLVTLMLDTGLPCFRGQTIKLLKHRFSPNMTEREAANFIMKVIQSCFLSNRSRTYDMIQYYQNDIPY

[21] = target: Serine/threonine-protein kinase PLK4 (Homo sapiens, UniProt O00444); assay: Inhibition of PLK4
[22] = target: 5'-AMP-activated protein kinase catalytic subunit alpha-1 (Homo sapiens, UniProt Q13131); assay: Inhibition of PRKAA1
[23] = target: 5'-AMP-activated protein kinase catalytic subunit alpha-2 (Homo sapiens, UniProt P54646); assay: Inhibition of PRKAA2
5'-AMP-activated protein kinase catalytic subunit alpha-2, sequence (P54646 whole entry): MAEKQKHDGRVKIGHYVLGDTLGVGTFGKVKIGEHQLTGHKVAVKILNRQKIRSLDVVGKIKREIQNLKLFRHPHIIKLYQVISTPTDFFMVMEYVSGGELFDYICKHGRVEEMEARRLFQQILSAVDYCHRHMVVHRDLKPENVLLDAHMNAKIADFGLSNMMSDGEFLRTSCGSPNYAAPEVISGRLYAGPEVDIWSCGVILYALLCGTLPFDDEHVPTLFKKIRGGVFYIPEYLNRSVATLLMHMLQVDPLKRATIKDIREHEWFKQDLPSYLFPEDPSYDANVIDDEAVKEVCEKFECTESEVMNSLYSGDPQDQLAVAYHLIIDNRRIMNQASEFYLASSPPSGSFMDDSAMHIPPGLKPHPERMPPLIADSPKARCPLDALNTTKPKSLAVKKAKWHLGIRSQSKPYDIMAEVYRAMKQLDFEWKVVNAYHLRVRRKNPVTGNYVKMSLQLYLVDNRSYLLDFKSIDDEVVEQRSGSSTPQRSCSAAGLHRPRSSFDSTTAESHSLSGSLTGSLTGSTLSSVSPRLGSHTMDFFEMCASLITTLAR

[24] = target: Protein kinase C beta type (Homo sapiens, UniProt P05771); assay: Inhibition of PRKCB
[25] = target: Protein-tyrosine kinase 6 (Homo sapiens, UniProt Q13882); assay: Inhibition of PTK6
[26] = target: Serine/threonine-protein kinase RIO2 (Homo sapiens, UniProt Q9BVS4); assay: Inhibition of RIOK2
[27] = target: Receptor-interacting serine/threonine-protein kinase 3 (Homo sapiens, UniProt Q9Y572); assay: Inhibition of RIPK3
[28] = target: Ribosomal protein S6 kinase alpha-5 (Homo sapiens, UniProt O75582); assay: Inhibition of RPS6KA5
[29] = target: Serine/threonine-protein kinase SIK2 (Homo sapiens, UniProt Q9H0K1); assay: Inhibition of SIK2
[30] = target: Serine/threonine-protein kinase 3 (Homo sapiens, UniProt Q13188); assay: Inhibition of STK3
[31] = target: Serine/threonine-protein kinase TAO1 (Homo sapiens, UniProt Q7L7X3); assay: Inhibition of TAOK1
[32] = target: Dual specificity testis-specific protein kinase 2 (Homo sapiens, UniProt Q96S53); assay: Inhibition of TESK2
[33] = target: TGF-beta receptor type-1 (Homo sapiens, UniProt P36897); assay: Inhibition of TGFBR1
[34] = target: Phosphatidylinositol 4,5-bisphosphate 3-kinase catalytic subunit delta isoform/gamma isoform (Homo sapiens, UniProt P48736+O00329); assay: Inhibition of PI3Kgamma/delta by neutrophil migration assay
[35] = Volume of distribution at steady state […] at 5 mg/kg, po; 1 mg/kg, iv; assay type: ADME, organism-based; details: read-out: Vdss
[36] = AUC in rat […] at 5 mg/kg, po; 1 mg/kg, iv; assay type: ADME, organism-based
[37] = target: Voltage-gated inwardly rectifying potassium channel KCNH2 (Homo sapiens, UniProt Q12809); assay: Inhibition of human ERG at >250 uM by patch clamp method
[38] = target: Cytochrome P450 1A2 (Homo sapiens, UniProt P05177); assay: Inhibition of CYP1A2 at >20 uM; assay type: ADME
[39] = target: Cytochrome P450 2C9 (Homo sapiens, UniProt P11712); assay: Inhibition of CYP2C9 at >20 uM; assay type: ADME
[40] = target: Cytochrome P450 2C19 (Homo sapiens, UniProt P33261); assay: Inhibition of CYP2C19 at >20 uM; assay type: ADME
[41] = target: Cytochrome P450 3A4 (Homo sapiens, UniProt P08684); assay: Inhibition of CYP3A4 at >20 uM; assay type: ADME
[42] = test system: Mus musculus; assay: Antiinflammatory activity in mouse air pouch model assessed as effect on IL-8-induced migration of granulocytes into air pouch at 1 mg/kg, po; assay type: functional
[43] = test system: Mus musculus; assay: Antiarthritic activity against collagen-induced arthritis mouse model assessed as mean clinical arthritis score with AUC calculation in at 10 mg/kg, po BID for 14 days; assay type: functional
[44] = test system: Mus musculus; assay: Antiarthritic activity against collagen-induced arthritis mouse model assessed as mean clinical arthritis score with AUC calculation in at 0.01 mg/kg, po BID for 14 days; assay type: functional
[45] = Cmax in mouse at 3 mg/kg, po BID; assay type: ADME, organism-based; parameters: dose 3 mg/kg, route oral; details: in vivo
[46] = test system: Mus musculus; assay: Antiarthritic activity against collagen-induced arthritis mouse model assessed as inhibition of disease progression at 3 mg/kg, po BID for 14 days; assay type: functional; details: 336 h
[47] = target: Tyrosine-protein kinase ABL2 (Homo sapiens, UniProt P42684); assay: Inhibition of ABL2
[48] = target: Atypical kinase COQ8B, mitochondrial (Homo sapiens, UniProt Q96D53); assay: Inhibition of ADCK4
[49] = target: Serine/threonine-protein kinase A-Raf (Homo sapiens, UniProt P10398); assay: Inhibition of ARAF
[50] = target: Serine-protein kinase ATM (Homo sapiens, UniProt Q13315); assay: Inhibition of ATM
[51] = target: Serine/threonine-protein kinase ATR (Homo sapiens, UniProt Q13535); assay: Inhibition of ATR
[52] = target: Aurora kinase B (Homo sapiens, UniProt Q96GD4); assay: Inhibition of AURKB
[53] = target: Calcium/calmodulin-dependent protein kinase type II subunit delta (Homo sapiens, UniProt Q13557); assay: Inhibition of CAMK2D

T1 sequence (P68400 whole entry): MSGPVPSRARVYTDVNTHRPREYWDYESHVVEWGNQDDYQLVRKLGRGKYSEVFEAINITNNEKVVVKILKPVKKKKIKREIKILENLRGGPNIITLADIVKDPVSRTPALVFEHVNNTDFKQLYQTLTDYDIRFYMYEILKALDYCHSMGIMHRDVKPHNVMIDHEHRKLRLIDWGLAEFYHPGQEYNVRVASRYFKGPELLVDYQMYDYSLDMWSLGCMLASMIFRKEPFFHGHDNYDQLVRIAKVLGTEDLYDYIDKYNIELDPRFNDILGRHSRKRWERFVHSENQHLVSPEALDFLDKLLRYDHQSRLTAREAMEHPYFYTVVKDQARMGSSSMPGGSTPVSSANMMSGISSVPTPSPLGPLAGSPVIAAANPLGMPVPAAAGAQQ

IC50 [1]: > 10 µM
IC50 [2]: > 10 µM
IC50 [3]: > 10 µM
IC50 [4]: > 10 µM
IC50 [5]: > 10 µM
IC50 [6]: > 10 µM
IC50 [7]: > 10 µM
IC50 [8]: > 10 µM
IC50 [9]: > 10 µM
IC50 [10]: > 10 µM
IC50 [11]: > 10 µM
IC50 [12]: > 10 µM
IC50 [13]: > 10 µM
IC50 [14]: > 10 µM
IC50 [15]: > 10 µM
IC50 [16]: > 10 µM
IC50 [17]: > 10 µM
IC50 [18]: > 10 µM
IC50 [19]: > 10 µM
IC50 [20]: > 5.89 µM
IC50 [21]: > 10 µM
IC50 [22]: > 10 µM
IC50 [23]: > 10 µM
IC50 [24]: > 10 µM
IC50 [25]: > 10 µM
IC50 [26]: > 5.89 µM
IC50 [27]: > 10 µM
IC50 [28]: > 10 µM
IC50 [29]: > 10 µM
IC50 [30]: > 10 µM
IC50 [31]: > 10 µM
IC50 [32]: > 10 µM
IC50 [33]: > 10 µM
pIC50 [34]: 6.3
Vd [35]: 1.3 L/kg
AUC [36]: 15.3 µM·h
inhibition (INH) [38]: Active
inhibition (INH) [39]: Active
inhibition (INH) [40]: Active
inhibition (INH) [41]: Active
Cmax [45]: 2500 nM
IC50 [47]: > 10 µM
IC50 [48]: > 10 µM
IC50 [49]: > 10 µM
IC50 [50]: > 10 µM
IC50 [51]: > 5.89 µM
IC50 [52]: > 10 µM
IC50 [53]: > 10 µM
SMILES: CC(C)(C)NS(=O)(=O)c1cncc(-c2ccn3nc(N)nc3c2)c1
inhibition (INH) [37]: Not Active
Activity [42]: 18%
Activity [43]: 42%
Activity [44]: 94%
inhibition in vivo at 3 mg/kg [46]: 41%
